One test has as its system THP1-Lucia cells. In words: NF-kB-induced luminescence assay in THP1-Lucia cells. It is filed as cell-based, human. The note with it: in comparison to positive control R848, N=4. On the procedure: THP-1 Cell Line and Culture Conditions. The THP1-Lucia™ cell line was obtained from Invivogen (San Diego, Calif.). THP1-Lucia cells, which are human monocytic cells derived from the blood of a child with leukemia, contain an NF-kB-inducible Luc reporter construct. This allows NF-kB activation to be measured by quantifying the luminescence from the secreted luciferase enzyme. THP1-Lucia cells were cultured in RPMI 1640 supplemented with 10% non-heat inactivated fetal bovine serum (FBS), 10 mM HEPES, 1.0 mM sodium pyruvate, 50 ug/ml Pen-Strep, and 100 ug/mL Normocin™. Once cultured, the cells were stored in a 37° C. incubator with 5% CO2 and a humidified atmosphere. Cells were passaged every 2-3 days and not allowed to exceed a concentration of 2.0×10^6 cells/ml media.
NF-kB-induced Luminescence Assay. THP1-Lucia cells between passage 15 and 18 and suspended in culture medium were dispensed into 384-well black clear-bottom plates (Corning 3712) at 30,000 cells/30 μl/well using a Combi liquid dispenser. […] Immediately after adding the substrate, the luminescence was read using a PerkinElmer Envision plate reader.

A further test concerns human adult PBMCs. In words: 9-plex multiplex cytokine assay after stimulation of adult PBMCs. The conditions noted are these: 0.1 μM-33 μM, 18 hours, 10% autologous plasma, fold-change over unstimulated control, N=4. Type of test: cell-based. How it is done:
Shown is a 9-plex multiplex cytokine assay after stimulation of adult peripheral blood mononuclear cells (PBMCs) with compound 037 or R848 at four different concentrations (0.1 μM-33 μM). Radar plots of immune polarizing cytokine production from human adult PBMCs stimulated for 18 hours in 10% autologous plasma, represented as fold-change over RPMI unstimulated control (N=4).
ELISAs and Multiplex-Analyte Assays. Supernatants derived from human PBMCs and DC stimulations were assayed by ELISA for TNF (ThermoFisher Scientific; Waltham, Mass., USA). Cytokine and chemokine expression profiles (e.g., IFNγ, IL-9, IL-10, IL-12 (p70), IL-13, IL-1β, IL-23, IL-27, IL-28A, IL-33, IL-6, MIP-3α/CCL20, and TNF) in cell culture supernatants were measured using a customized Milliplex® Human Th17 Magnetic Bead Panel according to the manufacturer's instructions (Millipore, Chicago, Ill., USA). Assays were read and analyzed on the Luminex® 100/200™ System and xPOTENT® software (Luminex, Austin, Tex.). A minimum threshold was set at the minimum detectable concentration for each individual assay, defined as three standard deviations above the mean background.

In the next test the test system is PBMCs. In words: TNF AlphaLISA screen on primary human PBMCs. Type of test: cell-based. The note with it: robust Z score >2 in both duplicates and at least 2 of 3 donors. On the procedure: TNF AlphaLISA screen was comprised of three parts: 1) human peripheral blood collection and PBMC isolation—human adult peripheral blood was collected with written consent. PBMCs were isolated from the blood using Ficoll density gradient. PBMCs were stored at 50 million cells per vial in 1 ml RPMI containing 20% autologous plasma and 10% DMSO at −80° C. until use; 2) TNFαLISA Assay—On Day 1, PBMCs were thawed in 37° C. water bath for 3 min and washed twice with PBS. Trypan blue viable cell count was obtained and cells were resuspended to viable 6.67×10^5 cells/ml in DMEM with 10% autologous plasma. Cells were dispensed in 30 μl per well in Corning 2712 black 384-well cell culture plates (final concentration was 20,000 cells/well). Controls were added to cells manually and the test compounds were added by robotic pin transfer. Plates were then incubated at 37° C./5% CO2 humidity-controlled incubator for 18 hours. On Day 2 of the assay, plates were centrifuged and 2 μl supernatants were collected into Perkin Elmer Alpha plates. Perkin Elmer Human TNFα kits (cat #AL208F) were used to detect the presence of TNFα in supernatants.
TNFαLISA Assay. Human adult peripheral blood was collected according to approved protocols. […] Viability was assessed by trypan blue staining and cells were then resuspended to 6.67×10^5 viable cells/mL in DMEM with 10% autologous plasma. […]
Background: In Alpha technology, singlet oxygen from a donor bead excites a nearby acceptor bead.

Molecules are shown by their SMILES.

Regarding `CCC(C(=O)Nc1cc(-c2cn3cccnc3n2)ccc1C)c1ccccc1` (stereo not drawn) [Compound 37], the “NF-κB-driven expression of luciferase in THP1 cells (in words)” value with THP1-Lucia cells is recorded as “does not substantially activate THP1 cells”. Further, in the test with human adult PBMCs, the “Cytokine response, 9-plex multiplex (in words)” value is reported as “induced a broad concentration-dependent cytokine response”. Besides, in the test on PBMCs, the “Hit in PBMC TNFαLISA screen (in words)” value is reported as “identified in the PBMC TNFαLISA screen”.

The values above are taken from US11673891B2, “Imidazopyrimidine compounds and uses thereof” (Dana-Farber Cancer Institute, Inc., priority 2017, dated 2023).
